Test results from publication PMC5144158 (Chemical research in toxicology, 2016).
Entries after “also recorded” stand apart in the source; their conditions may differ. Where two headings read alike, the source gives them in different places.

Legend:
hCAR2 [1] = biological target: T1, hCAR2 (Homo sapiens, UniProt Q14994); experiment: Transactivation luciferase reporter assay in COS-1 cells, CMV2-CAR2; type: cell-based; details: for activation of hCAR2 (screen): COS-1, 2B6-XREM-PBREM reporter, Figure 2
T1 sequence (Q14994 1-352): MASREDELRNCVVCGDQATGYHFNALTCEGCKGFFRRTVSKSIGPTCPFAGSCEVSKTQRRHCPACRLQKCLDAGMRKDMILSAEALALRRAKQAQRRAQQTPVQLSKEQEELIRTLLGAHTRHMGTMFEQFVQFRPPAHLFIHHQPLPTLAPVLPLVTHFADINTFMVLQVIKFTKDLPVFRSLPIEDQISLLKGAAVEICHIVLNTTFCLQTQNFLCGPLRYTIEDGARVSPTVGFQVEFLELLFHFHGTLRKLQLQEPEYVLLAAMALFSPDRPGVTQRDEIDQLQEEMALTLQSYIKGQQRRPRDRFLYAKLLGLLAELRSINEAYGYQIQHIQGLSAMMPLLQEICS
T1 sequence (P19793 1-462 partner): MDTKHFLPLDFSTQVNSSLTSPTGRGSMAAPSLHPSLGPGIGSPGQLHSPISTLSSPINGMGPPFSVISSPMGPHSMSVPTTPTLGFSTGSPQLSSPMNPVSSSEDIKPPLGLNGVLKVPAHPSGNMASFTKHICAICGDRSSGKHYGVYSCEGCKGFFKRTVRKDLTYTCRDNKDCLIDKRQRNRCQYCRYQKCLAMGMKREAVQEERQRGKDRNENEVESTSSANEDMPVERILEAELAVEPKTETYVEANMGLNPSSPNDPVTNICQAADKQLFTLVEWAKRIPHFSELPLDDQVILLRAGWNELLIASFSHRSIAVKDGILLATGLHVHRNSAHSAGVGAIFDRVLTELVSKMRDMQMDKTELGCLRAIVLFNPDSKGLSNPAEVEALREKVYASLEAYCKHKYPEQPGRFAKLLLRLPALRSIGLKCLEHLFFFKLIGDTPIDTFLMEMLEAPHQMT

hCAR1 = biological target: T2, hCAR1 (Homo sapiens, UniProt Q14994); experiment: Transactivation luciferase reporter assay in COS-1 cells, CMV2-CAR1; type: cell-based; details: COS-1, 2B6-XREM-PBREM reporter, ANDRO 10 μM, 24 h, Figure 2
T2 sequence (Q14994 1-348 isoform Q14994-2): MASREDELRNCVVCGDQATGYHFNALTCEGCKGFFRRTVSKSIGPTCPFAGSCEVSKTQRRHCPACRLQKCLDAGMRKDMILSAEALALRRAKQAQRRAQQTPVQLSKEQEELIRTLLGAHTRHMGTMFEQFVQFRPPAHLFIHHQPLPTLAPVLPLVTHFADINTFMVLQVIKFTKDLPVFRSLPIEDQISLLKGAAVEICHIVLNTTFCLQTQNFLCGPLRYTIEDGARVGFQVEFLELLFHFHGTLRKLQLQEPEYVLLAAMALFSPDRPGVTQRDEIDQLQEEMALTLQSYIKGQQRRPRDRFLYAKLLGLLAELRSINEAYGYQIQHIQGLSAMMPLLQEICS

hCAR3 = biological target: T3, hCAR3 (Homo sapiens, UniProt Q14994, DEL233-236); experiment: Transactivation luciferase reporter assay in COS-1 cells, CMV2-CAR3; type: cell-based; details: COS-1, 2B6-XREM-PBREM reporter, 24 h, Figure 2
T3 sequence (Q14994 with tags, fused parts or gaps isoform Q14994-8 DEL233-236): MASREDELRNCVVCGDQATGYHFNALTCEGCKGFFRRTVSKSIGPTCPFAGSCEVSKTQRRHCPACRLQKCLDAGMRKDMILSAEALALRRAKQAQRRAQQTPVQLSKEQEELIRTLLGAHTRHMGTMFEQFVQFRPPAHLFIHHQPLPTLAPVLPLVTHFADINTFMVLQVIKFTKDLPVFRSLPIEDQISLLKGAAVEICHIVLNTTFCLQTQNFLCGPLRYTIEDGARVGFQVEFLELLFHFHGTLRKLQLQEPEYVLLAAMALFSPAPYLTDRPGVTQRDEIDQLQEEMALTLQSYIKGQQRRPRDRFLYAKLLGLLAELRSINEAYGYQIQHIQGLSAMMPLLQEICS
T3 sequence (P19793 1-462 partner): T1 sequence (P19793 1-462 partner)

[2] = test system: hPPARα, hPPARβ/∂, and hPPARγ; experiment: PPRE reporter transactivation assays, statements on the hPPARs collectively; type: cell-based, human
Wild-type mice = details: PPARα knockout mice not protected, ref [59]; cited from earlier work
[3] = test system: rodent PPAR and CAR target genes; details: in vivo rodent studies, ref [29],[30]; cited from earlier work
male rodents = details: varying treatment modalities, ref [5]–[7]; cited from earlier work
female rodents = details: ref [8]; cited from earlier work
hPXR [4] = biological target: T4, hPXR (Homo sapiens, UniProt O75469); experiment: Transactivation luciferase reporter assay in COS-1 cells, CMV2-PXR; details: for activation of hPXR (screen): COS-1, 2B6-XREM-PBREM reporter, Figure 2
T4 sequence (O75469 1-434): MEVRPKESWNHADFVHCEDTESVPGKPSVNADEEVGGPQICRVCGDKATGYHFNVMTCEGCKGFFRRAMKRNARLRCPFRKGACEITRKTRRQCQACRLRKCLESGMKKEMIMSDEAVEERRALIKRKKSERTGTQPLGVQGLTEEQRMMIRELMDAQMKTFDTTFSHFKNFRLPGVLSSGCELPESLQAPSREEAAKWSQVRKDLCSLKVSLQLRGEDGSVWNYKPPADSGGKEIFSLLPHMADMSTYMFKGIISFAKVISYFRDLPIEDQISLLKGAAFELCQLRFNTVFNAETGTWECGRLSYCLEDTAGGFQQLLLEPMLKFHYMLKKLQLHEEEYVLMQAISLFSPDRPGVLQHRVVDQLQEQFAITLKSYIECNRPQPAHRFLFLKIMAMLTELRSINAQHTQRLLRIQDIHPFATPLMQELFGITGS
T4 sequence (P19793 1-462 partner): T1 sequence (P19793 1-462 partner)

hPPARα = biological target: T5, hPPARα (Homo sapiens, UniProt Q07869); type: cell-based; details: COS-1, 24 h, Figure 4A
T5 sequence (Q07869 1-468): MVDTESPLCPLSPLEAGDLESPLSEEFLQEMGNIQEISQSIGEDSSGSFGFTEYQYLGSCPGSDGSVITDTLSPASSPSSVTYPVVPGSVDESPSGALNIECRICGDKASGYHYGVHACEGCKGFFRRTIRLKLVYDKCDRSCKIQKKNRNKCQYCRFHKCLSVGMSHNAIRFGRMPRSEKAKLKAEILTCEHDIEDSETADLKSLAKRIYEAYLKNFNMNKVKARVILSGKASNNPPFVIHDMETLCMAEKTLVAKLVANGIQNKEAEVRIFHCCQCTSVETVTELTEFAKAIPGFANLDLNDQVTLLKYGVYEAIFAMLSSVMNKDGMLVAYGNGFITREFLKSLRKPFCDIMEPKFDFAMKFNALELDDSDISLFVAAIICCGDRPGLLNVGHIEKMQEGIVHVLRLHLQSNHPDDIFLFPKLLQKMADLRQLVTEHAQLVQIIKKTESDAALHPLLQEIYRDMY

hCAR2 [5] = biological target: hCAR2 (Homo sapiens, UniProt Q14994); experiment: Mammalian two-hybrid assay, CAR LBD with SRC1, COS-1 cells; type: cell-based; details: COS-1, 24 h, Figure 5
[6] = test system: PPAR target genes (ACOX1, ANGPTL4, CPT2, PDK4); experiment: Primary human hepatocyte mRNA expression; type: cell-based; details: primary human hepatocytes HH1–HH3, 24 h; for expression of PPAR target genes (overall): MEHP/MiNP 0.1–30 μM
3T3L1 cells = details: cited from earlier work
CYP2B6 = experiment: Primary human hepatocyte mRNA expression; details: donor HH3, 30 μM, 24 h
hPXR [7] = biological target: hPXR (Homo sapiens, UniProt O75469); experiment: Mammalian two-hybrid assay, PXR LBD with SRC1, COS-1 cells; details: COS-1, 24 h, Figure 5
hCAR variants and hPXR = details: transactivation assays, ref [47]; cited from earlier work

CCCCC(CC)COC(=O)c1ccccc1C(=O)OCC(CC)CCCC (stereo not shown) [DEHP, di(2-ethylhexyl) phthalate]
EC50 (hCAR2 [1]): 100 nM | activation of hCAR2 (screen) (hCAR2 [1]; 24 h): activated hCAR2 and hPXR | max fold activation (hCAR2) (hCAR2 [1]; COS-1, CYP2B6-PBREM-XREM reporter, 24 h, Figure 6/Table 4): 7.1 fold | activation of hCAR1 (screen) (hCAR1): only minimal activity; also recorded: little or no activation of hCAR1 | activation of hCAR3 (screen) (hCAR3): only minimal activity | activation of the PPRE reporter by hPPARs (screen) ([2]; COS-1, 24 h, Figure 3, effects only at highest test dose (100 μM)): neither DEHP nor DiNP activated the hPPARs | activation of the hPPARs (dose–response, higher doses) ([2]; hPPARα and hPPARγ, higher doses than screening, data not shown): neither of the diphthalates activated the hPPARs | phenotype on control diet or high fat diet (Wild-type mice): exhibited a lean phenotype | activation of rodent PPAR and CAR target genes [3]: activation of rodent PPAR and CAR target genes | testosterone levels, reproductive organ weights, sperm counts, sperm motility (male rodents): decrease testosterone levels, reproductive organ weights, sperm counts, and sperm motility | estradiol levels and estrus cycle (female rodents): Decreased estradiol levels and estrus cycle disruptions | EC50 (hPXR [4]): 3.5 µM | activation of hPXR (screen) (hPXR [4]; 24 h): activated hCAR2 and hPXR | max fold activation (hPXR) (hPXR [4]; COS-1, 3A4-XREM reporter, 24 h, Figure 6/Table 4): 13.7 fold

CCCCC(CC)COC(=O)c1ccccc1C(=O)O (stereo not shown) [MEHP, mono-(2-ethylhexyl)phthalate]
activation of hCAR2 (screen) (hCAR2 [1]; 24 h): significant activation of hCAR2 | rank order potency across receptors (hCAR2 [1]; transactivation dose–response, Figure 4B): hCAR2 > hPXR > hPPARγ ≥ PPARβ/∂ | activation of hCAR1 (screen) (hCAR1): slight activation of hCAR1 and hCAR3 at the highest doses; also recorded: little or no activation of hCAR1 | activation of hCAR3 (screen) (hCAR3): slight activation of hCAR1 and hCAR3 at the highest doses | activation of hPPARα (dose–response) (hPPARα): very little activation of hPPARα | hCAR interaction with SRC1 / activation (mammalian two-hybrid) (hCAR2 [5]): interacted with SRC1 in a dose-dependent manner | expression of PPAR target genes (overall) [6]: Neither MEHP nor MiNP induced expression of any PPAR target genes; also recorded: no activation of PPAR target genes | expression of PPARγ target genes involved in adipocyte differentiation (3T3L1 cells; 3T3L1 cells, ref [42]): induced expression of PPARγ target genes | cellular lipid and triglyceride content (3T3L1 cells; 3T3L1 preadipocytes, ref [41],[42]): increased cellular lipid and triglyceride content | CYP2B6 mRNA expression (CYP2B6): increased expression of CYP2B6 | hPXR interaction with SRC1 / activation (mammalian two-hybrid) (hPXR [7]): interacted with SRC1 in a dose-dependent manner | activation of hPXR (screen) (hPXR [4]; 24 h): moderate activation of hPXR | EC50 (hPXR [4]; read-out: EC50 (hPXR), COS-1, 3A4-XREM reporter, 24 h, Figure 6/Table 4): 27 µM

Cc1c(C)c2c(c(C)c1O)CCC(C)(COc1ccc(CC3SC(=O)NC3=O)cc1)O2 (stereo not shown) [TG, troglitazone]
ANGPTL4 mRNA expression ([6]; 50 μM WY14643, 30 μM TG): inducing only ANG and CPT in HH3 | CPT2 mRNA expression ([6]; 50 μM WY14643, 30 μM TG): inducing only ANG and CPT in HH3 | expression of PPAR target genes (overall) [6]: weak inducer of PPAR target genes | activation of hCAR variants and hPXR (hCAR variants and hPXR): activates hCAR variants and hPXR
